Results on 37 molecules are retold here after patent US9102688B2, “Sulfonaminoquinoline hepcidin antagonists” (Vifor (International) AG, priority 2011, dated 2015).

As a reminder, the pIC50 is the negative decadic logarithm of the IC50, by convention in mol/L. A low value points to a high IC50.

pIC50: −log10 of the molar value.

The test concerns the target T1, human ferroportin (Homo sapiens, UniProt Q9NP59).
T1 construct: expressed in transfected cells
T1 sequence (Q9NP59 1-571): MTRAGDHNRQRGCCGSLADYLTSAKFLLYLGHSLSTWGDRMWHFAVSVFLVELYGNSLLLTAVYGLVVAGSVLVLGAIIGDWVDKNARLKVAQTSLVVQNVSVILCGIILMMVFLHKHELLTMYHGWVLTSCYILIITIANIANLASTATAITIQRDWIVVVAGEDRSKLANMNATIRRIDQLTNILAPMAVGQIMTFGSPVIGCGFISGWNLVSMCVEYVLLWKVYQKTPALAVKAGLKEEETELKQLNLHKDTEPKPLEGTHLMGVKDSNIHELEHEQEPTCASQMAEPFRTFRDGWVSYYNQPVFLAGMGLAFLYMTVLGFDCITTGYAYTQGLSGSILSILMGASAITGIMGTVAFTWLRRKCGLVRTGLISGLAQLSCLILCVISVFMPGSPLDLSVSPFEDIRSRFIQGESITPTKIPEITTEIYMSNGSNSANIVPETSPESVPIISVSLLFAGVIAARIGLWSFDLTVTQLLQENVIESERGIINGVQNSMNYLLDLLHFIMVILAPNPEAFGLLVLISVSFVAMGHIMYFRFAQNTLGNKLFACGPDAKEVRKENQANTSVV
The experiment in a line: ferroportin internalization assay (inhibition of hepcidin-induced internalization of Fpn). It is filed as cell-based. As to conditions: MDCK-FPN-HaloTag cells, 100 nM hepcidin, overnight incubation; concentration range from 0.04 to 40 μM. The procedure:
The hepcidin-antagonistic action of the sulfonaminoquinoline compounds of the present invention was determined by means of the “ferroportin internalization assay” described in the following.
Organic compounds of low molecular weight which counteract the biological actions of hepcidin on its receptor, the iron exporter ferroportin (Fpn), were identified on the basis of their ability to inhibit hepcidin-induced internalization of Fpn in living cells. For this purpose, a stable cell line (Madin-Darby canine kidney, MDCK) was produced which constitutively expresses human ferroportin fused recombinantly at its C terminus with a fluorescent reporter protein (HaloTag®, Promega Corp.). The internalization of Fpn was monitored by labelling these cells with fluorescent ligands (HaloTag®-TMR, tetramethylrhodamine) which join covalently on to the HaloTag reporter gene fused with the Fpn. […] Optimized image analysis algorithms were used to ascertain the cell surface and to quantify the corresponding membrane fluorescence associated with the Fpn-HaloTag fusion protein. This assay allows a quantitative image-based analysis in order to quickly evaluate compounds which can block hepcidin-induced internalization of Fpn. This assay is a direct in vitro pendant of the in vivo action mechanism proposed for medicament candidates and is therefore suitable as an initial assay with a high throughput for identifying compounds which counteract the action of hepcidin on its receptor ferroportin.
• 7,500 cells per well (MDCK-FPN-HaloTag) were transinoculated in 50 μl of DMEM medium (Dulbeccos Modified Eagle Medium with 10% foetal bovine serum (FBS), which contained 1% penicillin, 1% streptomycin and 450 μg/ml of G-418) in microtitre plates with 384 wells (384 Cell carrier plates, Perkin Elmer, cat. no. 6007430), followed by incubation overnight at 37° C./5% CO2. • The volume of the medium was reduced to 10 μl, and 10 μl of 5 μM HaloTag-TMR ligands (Promega, cat. no. G 8251) were added in DMEM medium in order to stain the Fpn-HaloTag fusion protein. • 15 min incubation at 37° C./5% CO2 • The HaloTag-TMR ligand was removed and the cells were washed with fresh DMEM medium and the volume was reduced to 20 μl of DMEM medium. • 3 μl per well of a solution of the test compound (dissolved DMSO) were added ([…]). • 7 μl of […] hepcidin (Peptides International, cat. no. PLP-4392-s, 100 μM stock solution diluted in water in DMEM medium) were added per well up to a final hepcidin concentration of 100 nM. • The cells were incubated overnight at 37° C./5% CO2. • The cells were fixed by adding paraformaldehyde (PFA, Electron Microscopy Sciences, cat. no. 15710-S) directly to the cells up to a final concentration of 4%, followed by incubation at room temperature for 15-20 minutes. • The PFA solution was removed and the cells were washed with PBS (phosphate-buffered saline solution), in each case 30 μl remaining in the plate. • 20 μl of Draq5 (Biostatus, cat. no. DR 51000) were added up to a final concentration of 2.5 μM in order to stain the cell nuclei, and the plates were sealed with a foil plate seal. • The plates were analysed with the Opera Plate Imager (Opera Confocal Plate Imager, Perkin Elmer) with 7 images per well; 440 ms exposure time per image, […] focal point height.
`O=S1(=O)Nc2c(ccc3cccnc23)-c2ccccc21` [Example 2, 5H-6-Thia-4,5-diaza-chrysene 6,6-dioxide] showed a negative-log IC50 (pIC50) of 5.54.

Molecule `O=S(=O)(Nc1cccc2cccnc12)c1ccccc1` [Example 4, N-Quinolin-8-yl-benzenesulfonamide] gave a pIC50 of 5.34.

In turn, `O=S(=O)(Nc1cccc2cccnc12)c1ccc(Cl)cc1` [Example 5, 4-Chloro-N-quinolin-8-yl-benzenesulfonamide] gave a pIC50 of 5.49.

In turn, `O=[N+]([O-])c1ccccc1S(=O)(=O)Nc1cccc2cccnc12` [Example 6, 2-Nitro-N-quinolin-8-yl-benzenesulfonamide] gave a pIC50 of 5.54.

`Nc1ccccc1S(=O)(=O)Nc1cccc2cccnc12` [Example 8, 2-Amino-N-quinolin-8-yl-benzenesulfonamide]: the pIC50 was 4.68.

`Cc1ccc(S(=O)(=O)Nc2cccc3cccnc23)cc1` [Example 9, 4-Methyl-N-quinolin-8-yl-benzenesulfonamide] gave a negative logarithm of the IC50 (pIC50) of 4.30.

Take `O=S(=O)(Nc1cccc2cccnc12)c1ccccc1Cl` [Example 11, 2-Chloro-N-quinolin-8-yl-benzenesulfonamide]: the pIC50 is 5.10.

Molecule `Cc1ccc(S(=O)(=O)Nc2cccc3cccnc23)c(N)c1` [Example 14, 2-Amino-4-methyl-N-quinolin-8-yl-benzenesulfonamide] showed a pIC50 of 6.52. Against the preceding molecule, the pIC50 is 1.42 log units higher.

In the case of `N#Cc1cccc(S(=O)(=O)Nc2cccc3cccnc23)c1` [Example 16, 3-Cyano-N-quinolin-8-yl-benzenesulfonamide], the negative logarithm of the IC50 (pIC50) is 6.38.

Take `O=S(=O)(Nc1cccc2cccnc12)c1ccc(C(F)(F)F)cc1` [Example 17, N-Quinolin-8-yl-4-trifluoromethyl-benzenesulfonamide]: the pIC50 is 6.00. This pIC50 lies 0.38 log units lower than the previous one.

As to `Cc1cccc(S(=O)(=O)Nc2cccc3cccnc23)c1` [Example 19, 3-Methyl-N-quinolin-8-yl-benzenesulfonamide], the pIC50 is 5.68.

As to `O=S(=O)(Nc1cccc2cccnc12)c1cccc(Cl)c1` [Example 20, 3-Chloro-N-quinolin-8-yl-benzenesulfonamide], the pIC50 was 6.01.

For `COc1cccc(S(=O)(=O)Nc2cccc3cccnc23)c1` [Example 21, 3-Methoxy-N-quinolin-8-yl-benzenesulfonamide], the pIC50 was 5.82.

Regarding `COc1cc(NS(=O)(=O)c2ccccc2)c2ncccc2c1` [Example 23, N-(6-Methoxy-quinolin-8-yl)-benzenesulfonamide], the pIC50 is 5.19. Against the preceding molecule, the pIC50 is 0.63 log units lower.

Regarding `O=S(=O)(Nc1ccc(Cl)c2cccnc12)c1ccccc1` [Example 25, N-(5-Chloro-quinolin-8-yl)-benzenesulfonamide], the pIC50 was 5.78.

In the case of `O=[N+]([O-])c1cc(F)ccc1S(=O)(=O)Nc1cccc2cccnc12` [Example 30, 4-Fluoro-2-nitro-N-quinolin-8-yl-benzenesulfonamide], the pIC50 is 6.04.

`Nc1cc(F)ccc1S(=O)(=O)Nc1cccc2cccnc12` [Example 31, 2-Amino-4-fluoro-N-quinolin-8-yl-benzenesulfonamide] had a pIC50 of 5.40.

As to `O=S(=O)(Nc1cccc2cccnc12)c1cccnc1` [Example 33, Pyridine-3-sulfonic acid quinolin-8-ylamide], the pIC50 was 5.44.

In turn, `COc1ccc(S(=O)(=O)Nc2cccc3cccnc23)c([N+](=O)[O-])c1` [Example 34, 4-Methoxy-2-nitro-N-quinolin-8-yl-benzenesulfonamide] had a pIC50 of 5.74.

The molecule `Nc1cc(C(F)(F)F)ccc1S(=O)(=O)Nc1cccc2cccnc12` [Example 35, 2-Amino-N-quinolin-8-yl-4-trifluoromethyl-benzenesulfonamide] gave a negative-log IC50 (pIC50) of 6.12.

`O=S(=O)(Nc1cccc2cccnc12)c1ccccc1OC(F)(F)F` [Example 36, N-Quinolin-8-yl-2-trifluoromethoxy-benzenesulfonamide]: the pIC50 is 5.60. Compared with the last molecule, the pIC50 is 0.52 log units lower.

As for `N#Cc1ccccc1S(=O)(=O)Nc1cccc2cccnc12` [Example 37, 2-Cyano-N-quinolin-8-yl-benzenesulfonamide], the pIC50 was 6.09. This pIC50 lies 0.49 log units higher than the previous one.

Take `O=S(=O)(Nc1cccc2cccnc12)c1cccc(OC(F)(F)F)c1` [Example 38, N-Quinolin-8-yl-3-trifluoromethoxy-benzenesulfonamide]: the pIC50 is 5.92.

The molecule `COC(=O)c1ccccc1S(=O)(=O)Nc1cccc2cccnc12` [Example 39, 2-(Quinolin-8-ylsulfamoyl)-benzoic acid methyl ester] had a pIC50 of 4.24.

Molecule `COC(=O)c1cccc(S(=O)(=O)Nc2cccc3cccnc23)c1` [Example 40, 3-(Quinolin-8-ylsulfamoyl)-benzoic acid methyl ester] showed a pIC50 of 5.85.

On to `O=S(=O)(Nc1cccc2cccnc12)c1ccc(Cl)cc1Cl` [Example 41, 2,4-Dichloro-N-quinolin-8-yl-benzenesulfonamide], for which the pIC50 is 6.00.

On to `O=S(=O)(Nc1cccc2cccnc12)c1ccc(Cl)cc1F` [Example 42, 4-Chloro-2-fluoro-N-quinolin-8-yl-benzenesulfonamide], for which the pIC50 is 6.06. The pIC50 values of the last two molecules are within 0.2 log units of each other.

On to `O=S(=O)(Nc1cccc2cccnc12)c1ccccc1C(F)(F)F` [Example 43, N-Quinolin-8-yl-2-trifluoromethyl-benzenesulfonamide], for which the pIC50 was 6.38.

In turn, `O=S(=O)(Nc1cccc2cccnc12)c1cccc(C(F)(F)F)c1` [Example 44, N-Quinolin-8-yl-3-trifluoromethyl-benzenesulfonamide] had a pIC50 of 6.14.

Consider `Cc1cnc2c(NS(=O)(=O)c3ccccc3)cccc2c1` [Example 45, N-(3-Methyl-quinolin-8-yl)-benzenesulfonamide], for which the pIC50 was 6.21.

The molecule `O=S(=O)(Nc1ccccc1)Nc1cccc2cccnc12` [Example 46, N-phenyl(quinolin-8-ylamino)sulfonamide] gave a pIC50 of 5.64.

`O=S(=O)(Nc1cccc2cccnc12)c1c(Cl)cc(Cl)cc1Cl` [Example 47, 2,4,6-Trichloro-N-quinolin-8-yl-benzenesulfonamide] gave a pIC50 of 6.07.

As to `CC(C)C(=O)Nc1ccccc1S(=O)(=O)Nc1cccc2cccnc12` [Example 48, N-[2-(Quinolin-8-ylsulfamoyl)-phenyl]-isobutyramide], the pIC50 was 4.61.

In turn, `O=C(Nc1ccccc1S(=O)(=O)Nc1cccc2cccnc12)C(F)(F)F` [Example 49, 2,2,2-Trifluoro-N-[2-(quinolin-8-ylsulfamoyl)-phenyl]-acetamide] had a pIC50 of 6.51.

Regarding `CC(=O)Nc1ccccc1S(=O)(=O)Nc1cccc2cccnc12` [Example 50, N-[2-(Quinolin-8-ylsulfamoyl)-phenyl]-acetamide], the pIC50 was 5.86.

The molecule `Cc1ccc(S(=O)(=O)Nc2c(Cl)cc(Cl)c3cccnc23)cc1` [Example 51, N-(5,7-Dichloro-quinolin-8-yl)-4-methyl-benzenesulfonamide] showed a pIC50 of 4.10. This pIC50 lies 1.76 log units lower than the previous one.

The molecule `O=S(=O)(Nc1ccc(Cl)c2cccnc12)c1ccc(Cl)cc1F` [Example 54, 4-Chloro-N-(5-chloro-quinolin-8-yl)-2-fluoro-benzenesulfonamide] had a pIC50 of 5.86. Against the preceding molecule, the pIC50 is 1.76 log units higher.
